{
  "source": "BindingDB's records for doi:10.1021/jm00101a032",
  "about": "(Pfizer, 1992)",
  "key": {"[1]": {"experiment": "Binding affinity against 5-hydroxytryptamine 1A receptor"}, "[2]": {"experiment": "Effect on forskolin stimulated adenylate cyclase activity at 5-hydroxytryptamine 1A receptor of guinea pig hippocampus."}, "[3]": {"experiment": "Effect on forskolin stimulated adenylate cyclase activity at 5-hydroxytryptamine 1A receptor of guinea pig hippocampus.", "remark": "listed apart in the source"}},
  "data": [
    {"smiles": "COc1ccc2[nH]cc(C[C@H]3CCCN3C)c2c1", "note": "[5-Methoxy-3-((R)-1-methyl-pyrrolidin-2-ylmethyl)-1H-indole]", "values": [
      {"measurement": "IC50", "setting": "[1]", "value": 10, "unit": "nM"},
      {"measurement": "EC50", "setting": "[2]", "value": 35, "unit": "nM"}
    ]},
    {"smiles": "COc1ccc2[nH]cc(C[C@@H]3CCCN3C)c2c1", "note": "[5-Methoxy-3-((S)-1-methyl-pyrrolidin-2-ylmethyl)-1H-indole]", "values": [
      {"measurement": "IC50", "setting": "[3]", "value": 140, "unit": "nM"}
    ]}
  ]
}
